From patent US9611252B2 (LifeSci Pharmaceuticals, Inc., priority 2013, dated 2017)
Where two headings read alike, the source gives them in different places.

Tests used:
human Plasma Kallikrein = human Plasma Kallikrein (Homo sapiens (Human), UniProt P03952); experiment: In vitro enzyme inhibition of human plasma kallikrein (PFR-AMC cleavage); type: biochemical; conditions: human plasma kallikrein, Pro-Phe-Arg-AMC substrate, 37° C.; read-out: hPK IC50
How it was run: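 Compound pre-incubated with human plasma kallikrein 5 min at 37° C in 50 mM Tris-HCl pH 7.5, 150 mM NaCl, 0.01% Triton X-100. Reaction started with PFR-AMC, cleavage read kinetically at 37° C every 43 s for 1 h.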

kallikrein = kallikrein (Homo sapiens (Human), UniProt P03952); experiment: In vitro cellular assay (contact assay): kallikrein activity in ellagic acid-activated human plasma, substrate Z-FR-2-AMC; type: biochemical
Description: The ability of the compounds disclosed herein to inhibit cellular kallikrein activity was quantified and the respective EC50 value was determined.
All dilutions were prepared in an assay buffer comprising 50 mM Tris-HCl pH 7.2, 150 mM NaCl, and 0.01% Triton X-100.
The ten solutions of the test compounds, prepared by serial dilution, were further diluted 50-fold in the assay buffer.
Human plasma is thawed on ice and centrifuged for 15 min at 4° C. to remove platelets. A 1 mM stock solution of ellagic acid is diluted to 8 μM and mixed with human plasma, after removing platelets, at a ratio of 1:0.8.
A 22.5 μL volume of the final mixture of human plasma and ellagic acid was added to a 96-well microwell plate and the plate was incubated for 15 min at 37° C.
The CINH inhibitor at various concentrations, prepared by serial dilutions as described above, were added to the inhibitor control wells. […] Each CINH concentration is tested in duplicates.
The test compounds at various concentrations, also prepared by serial dilutions as described above, are added to the test wells. […] Each test compound concentration was tested in duplicates.
In addition to the inhibitor control and test wells, the 96 well assay plate includes positive control wells which contained the mixture of human plasma and ellagic acid without C1NH inhibitor or test compounds, and background wells which contained neither the mixture of human plasma and ellagic acid nor the test compounds. The total volume of liquid in positive control and background wells was brought up to 35 μL, using the assay buffer.
The assay plate containing C1NH inhibitors and test compounds mixed with human plasma and ellagic acid and appropriate controls was incubated at 37° C. for 5 min. […] The reagents were mixed well by shaking the plate gently for 30 sec.
The enzyme reaction was quantified by immediate kinetic reading of the assay plate using excitation/emission wavelengths of 330 nm/440 nm respectively. Fluorescence intensity was recorded for 60 min, using a time interval of 43 sec.
The inhibition activity of the test compounds were evaluated using the IC50 values, calculated according to the dose-response curve of the test compounds, fitted using the “log(inhibitor)-response (variable slope)” equation in GraphPadPrism software (GraphPad Software, Inc.).
The percentage inhibition was calculated using the following equation:
[formula] where, Mean(BG) is the average value of the fluorescence intensity of the background wells and Mean(PC) is the average value of the fluorescence intensity of the positive control wells.
Table 4 provides the EC50 values of various compounds disclosed herein.

[1] = human plasma activated with ellagic acid, Z-FR-2-AMC substrate, 37° C., read-out: Contact Assay EC50

Chain of kallikrein (P03952 20-638): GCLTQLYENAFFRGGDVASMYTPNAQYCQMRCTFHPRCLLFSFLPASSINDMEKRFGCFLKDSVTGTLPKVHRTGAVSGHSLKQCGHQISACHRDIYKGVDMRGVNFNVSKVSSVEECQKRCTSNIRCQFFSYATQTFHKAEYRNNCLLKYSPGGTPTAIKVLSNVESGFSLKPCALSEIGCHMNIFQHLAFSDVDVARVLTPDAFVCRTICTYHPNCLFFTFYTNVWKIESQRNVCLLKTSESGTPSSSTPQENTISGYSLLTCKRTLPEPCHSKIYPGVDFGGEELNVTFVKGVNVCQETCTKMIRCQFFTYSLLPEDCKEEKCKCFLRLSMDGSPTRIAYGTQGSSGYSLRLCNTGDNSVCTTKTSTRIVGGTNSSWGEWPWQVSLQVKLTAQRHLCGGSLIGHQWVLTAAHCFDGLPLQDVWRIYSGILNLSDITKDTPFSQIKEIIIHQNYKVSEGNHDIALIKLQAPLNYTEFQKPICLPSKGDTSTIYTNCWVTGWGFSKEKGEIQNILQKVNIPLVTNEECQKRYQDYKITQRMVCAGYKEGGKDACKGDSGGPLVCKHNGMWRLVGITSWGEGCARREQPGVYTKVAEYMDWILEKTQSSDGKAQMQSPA
Chain of human Plasma Kallikrein (P03952 20-638): as above

Row | IC50 (human Plasma Kallikrein) [nM] | EC50 (kallikrein; [1]) [nM] | SMILES | EC50 (kallikrein) [nM]
1 | < 100 | < 100 | Cc1cnc2c(C(N)=O)cc(Cc3cc(C(=O)NCc4c(C)cc(N)nc4C)ccn3)cc2c1 [Example 77, 6-((4-(((6-amino-2,4-dimethylpyridin-3-yl)methyl)carbamoyl)pyridin-2-yl)methyl)-3-methylquinoline-8-carboxamide] | 
2 | < 100 | < 100 | Cc1cnc2ccc(Cc3cc(C(=O)NCc4ccc5c(N)nccc5c4)ccn3)cc2c1 [Example 142, N-((1-aminoisoquinolin-6-yl)methyl)-2-((3-methylquinolin-6-yl)methyl)isonicotinamide] | 
3 | < 100 | < 100 | Cc1ccc2ncc(Cc3cc(C(=O)NCc4c(C)cc(N)nc4C)ccn3)cc2c1 [Example 114, N-((6-amino-2,4-dimethylpyridin-3-yl)methyl)-2-((6-methylquinolin-3-yl)methyl)isonicotinamide] | 
4 | < 100 | < 100 | Cc1cnc2c(C(N)=O)cc(Cc3cc(C(=O)NCc4cc5c(Cl)c[nH]c5cc4F)ccn3)cc2c1 [Example 78, 6-((4-(((3-chloro-6-fluoro-1H-indol-5-yl)methyl)carbamoyl)pyridin-2-yl)methyl)-3-methylquinoline-8-carboxamide] | 
5 | < 100 | 100 to 1000 | Cc1ccc2cc(Cc3cc(C(=O)NCc4ccc5c(N)nccc5c4)ccn3)ccc2n1 [Example 111, N-((1-aminoisoquinolin-6-yl)methyl)-2-((2-methylquinolin-6-yl)methyl)isonicotinamide] | 
6 | < 100 | 100 to 1000 | Cc1ccc2cc(Cc3cc(C(=O)NCc4cc5c(Cl)c[nH]c5cc4F)ccn3)ccc2n1 [Example 110, N-((3-chloro-6-fluoro-1H-indol-5-yl)methyl)-2-((2-methylquinolin-6-yl)methyl)isonicotinamide] | 
7 | < 100 | 100 to 1000 | Cc1cc2cc(Cc3cc(C(=O)NCc4ccc5c(N)nccc5c4)ccn3)ccc2cn1 [Example 132, N-((1-aminoisoquinolin-6-yl)methyl)-2-((3-methylisoquinolin-6-yl)methyl)isonicotinamide] | 
8 | < 100 | 100 to 1000 | Cc1ccc2ncc(Cc3cc(C(=O)NCc4cc5c(Cl)c[nH]c5cc4F)ccn3)cc2c1 [Example 116, N-((3-chloro-6-fluoro-1H-indol-5-yl)methyl)-2-((6-methylquinolin-3-yl)methyl) isonicotinamide] | 
9 | < 100 | < 100 | Cc1ccc2ncc(Cc3cc(C(=O)NCc4ccc5c(N)nccc5c4)ccn3)cc2c1 [Example 115, N-((1-aminoisoquinolin-6-yl)methyl)-2-((6-methylquinolin-3-yl)methyl)isonicotinamide] | 
10 | < 100 | < 100 | Cc1cc(N)nc(C)c1CNC(=O)c1ccnc(Cc2cc(S(C)(=O)=O)c3ncc(Cl)cc3c2)c1 [Example 67, N-((6-amino-2,4-dimethylpyridin-3-yl)methyl)-2-((3-chloro-8-(methylsulfonyl)quinolin-6-yl)methyl)isonicotinamide] | 
11 | < 100 | 100 to 1000 | Cc1ccc2ncc(Cc3cc(C(=O)NCc4ccc(N)nc4C)ccn3)cc2c1 [Example 117, N-((6-amino-2-methylpyridin-3-yl)methyl)-2-((6-methylquinolin-3-yl)methyl)isonicotinamide] | 
12 | < 100 | < 100 | Nc1nccc2cc(CNC(=O)c3ccnc(Cc4cnc5ccc(F)cc5c4)c3)ccc12 [Example 118, N-((1-aminoisoquinolin-6-yl)methyl)-2-((6-fluoroquinolin-3-yl)methyl)isonicotinamide] | 

Further lines, the compound ahead of its results:

Row | SMILES | IC50 (human Plasma Kallikrein) [nM] | EC50 (kallikrein; [1]) [nM] | EC50 (kallikrein) [nM]
13 | N#Cc1cc(Cc2cc(C(=O)NCc3ccc4c(N)nccc4c3)ccn2)cc2cc(Cl)cnc12 [Example 57, N-(1-amino-isoquinolin-6-ylmethyl)-2-(3-chloro-8-cyano-quinolin-6-ylmethyl)-isonicotinamide] | < 100 |  | 100 to 1000
14 | Cc1cnc2c(S(C)(=O)=O)cc(Cc3cc(C(=O)NCc4n[nH]c5ccc(Cl)cc45)ccn3)cc2c1 [Example 20, N-((5-chloro-1H-indazol-3-yl)methyl)-2-((3-methyl-8-(methylsulfonyl)quinolin-6-yl)methyl)isonicotinamide] | < 100 | < 100 | 
15 | Cc1cnc2c(C(N)=O)cc(Cc3cc(C(=O)NCc4cc5cc[nH]c5cc4F)ccn3)cc2c1 [Example 83, 6-((4-(((6-fluoro-1H-indol-5-yl)methyl)carbamoyl)pyridin-2-yl)methyl)-3-methylquinoline-8-carboxamide] | < 100 | 100 to 1000 | 
16 | Cc1cc(N)nc(C)c1CNC(=O)c1ccnc(Cc2ccc3ncc(Cl)cc3c2)c1 [Example 35, N-((6-amino-2,4-dimethylpyridin-3-yl)methyl)-2-((3-chloroquinolin-6-yl)methyl)isonicotinamide] | < 100 | < 100 | 
17 | NC(=O)c1cc(Cc2cc(C(=O)NCc3cnc4[nH]cc(Cl)c4c3)ccn2)cc2cc(Cl)cnc12 [Example 61, 3-chloro-6-((4-(((3-chloro-1H-pyrrolo[2,3-b]pyridin-5-yl)methyl)carbamoyl)pyridin-2-yl)methyl)quinoline-8-carboxamide] | < 100 | 100 to 1000 | 
18 | Cc1cnc2c(S(C)(=O)=O)cc(Cc3cc(C(=O)NCc4ccc5[nH]cc(Cl)c5c4F)ccn3)cc2c1 [Example 21, N-((3-chloro-4-fluoro-1H-indol-5-yl)methyl)-2-((3-methyl-8-(methylsulfonyl)quinolin-6-yl)methyl)isonicotinamide] | < 100 | < 100 | 
19 | NC(=O)c1cc(Cc2cc(C(=O)NCc3cc4c(Cl)c[nH]c4cc3F)ccn2)cc2cc(Cl)cnc12 [Example 59, 3-chloro-6-((4-(((3-chloro-6-fluoro-1H-indol-5-yl)methyl)carbamoyl)pyridin-2-yl)methyl)quinoline-8-carboxamide] | < 100 | 100 to 1000 | 
20 | NC(=O)c1cc(Cc2cc(C(=O)NCc3n[nH]c4ccc(Cl)cc34)ccn2)cc2cc(Cl)cnc12 [Example 60, 3-chloro-6-((4-(((5-chloro-1H-indazol-3-yl)methyl)carbamoyl)pyridin-2-yl)methyl)quinoline-8-carboxamide] | < 100 | 100 to 1000 | 
21 | Cc1cc(N)nc(C)c1CNC(=O)c1ccnc(Cc2cc(F)c3ncc(Cl)cc3c2)c1 [Example 89, N-(6-amino-2,4-dimethyl-pyridin-3-ylmethyl)-2-(3-chloro-8-fluoro-quinolin-6-ylmethyl)-isonicotinamide] | < 100 | < 100 | 
22 | Cc1cnc2c(S(C)(=O)=O)cc(Cc3cc(C(=O)NCc4cc5cc[nH]c5cc4F)ccn3)cc2c1 [Example 18, N-((6-fluoro-1H-indol-5-yl)methyl)-2-((3-methyl-8-(methylsulfonyl)quinolin-6-yl)methyl)isonicotinamide] | < 100 | 100 to 1000 | 
23 | Nc1nccc2cc(CNC(=O)c3ccnc(Cc4ccc5ncc(Cl)cc5c4)c3)ccc12 [Example 31, N-((1-aminoisoquinolin-6-yl)methyl)-2-((3-chloroquinolin-6-yl)methyl)isonicotinamide] | < 100 | < 100 | 
24 | Cc1nc(N)ccc1CNC(=O)c1ccnc(Cc2ccc3ncc(Cl)cc3c2)c1 [Example 34, N-((6-amino-2-methylpyridin-3-yl)methyl)-2-((3-chloroquinolin-6-yl)methyl)isonicotinamide] | < 100 | < 100 | 
25 | Cc1nc(N)ccc1CNC(=O)c1ccnc(Cc2cc(C(N)=O)c3ncc(Cl)cc3c2)c1 [Example 62, 6-((4-(((6-amino-2-methylpyridin-3-yl)methyl)carbamoyl)pyridin-2-yl)methyl)-3-chloroquinoline-8-carboxamide] | < 100 | < 100 | 
26 | Cc1cnc2c(S(C)(=O)=O)cc(Cc3cc(C(=O)NCc4cnc5[nH]cc(Cl)c5c4)ccn3)cc2c1 [Example 19, N-((3-chloro-1H-pyrrolo[2,3-b]pyridin-5-yl)methyl)-2-((3-methyl-8-(methylsulfonyl)quinolin-6-yl)methyl)isonicotinamide] | < 100 | < 100 | 
27 | NC(=O)c1cc(Cc2cc(C(=O)NCc3ccc4[nH]cc(Cl)c4c3F)ccn2)cc2cc(Cl)cnc12 [Example 65, 3-chloro-6-((4-(((3-chloro-4-fluoro-1H-indol-5-yl)methyl)carbamoyl)pyridin-2-yl)methyl)quinoline-8-carboxamide] | < 100 | < 100 | 
